The assay deals with T1, SMYD3 (Homo sapiens, UniProt Q9H7B4).
T1 construct: Expressed full-length human His-tagged SMYD3 protein was purified from cell paste; His6 (cleaved yes); SUMO (with TEV site) (cleaved yes); made in house; host or cells: E. coli BL21 codonplus RIL
T1 sequence (Q9H7B4 1-428): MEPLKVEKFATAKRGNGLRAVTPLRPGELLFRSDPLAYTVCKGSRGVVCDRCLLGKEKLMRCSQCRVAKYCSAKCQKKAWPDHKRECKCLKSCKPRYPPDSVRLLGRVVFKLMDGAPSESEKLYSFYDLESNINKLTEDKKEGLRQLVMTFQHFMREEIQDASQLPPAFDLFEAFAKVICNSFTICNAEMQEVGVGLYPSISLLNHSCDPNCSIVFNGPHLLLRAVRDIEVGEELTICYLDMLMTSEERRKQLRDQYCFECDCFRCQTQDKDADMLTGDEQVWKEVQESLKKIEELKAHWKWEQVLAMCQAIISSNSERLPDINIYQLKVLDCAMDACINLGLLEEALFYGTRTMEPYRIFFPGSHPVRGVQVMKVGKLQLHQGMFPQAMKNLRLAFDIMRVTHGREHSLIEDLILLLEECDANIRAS
Nature of the assay: SMYD3 Biochemical Assay (SMYD3 enzyme assay on MEKK2 protein substrate, 3H-SAM, scintillation proximity assay). The following applies: read-out: SMYD3 Biochem IC50 (uM)*. The source says: S-adenosylmethionine (SAM), S-adenosylhomocysteine (SAH), Tris, Tween20, dimethylsulfoxide (DMSO), bovine skin gelatin (BSG), and Tris(2-carboxyethyl)phosphine hydrochloride solution (TCEP) were purchased from Sigma-Aldrich at the highest level of purity possible. ^3H-SAM was purchase from American Radiolabeled Chemicals with a specific activity of 80 Ci/mmol.
This protein was expressed in High Five insect cells and purified to >85% purity. Protein identity was confirmed by MS/MS analysis after proteolytic digestion. The protein sequence used was:
Full-length human SMYD3 isoform 1 (BAB86333) was inserted into a modified pET21b plasmid containing a His6 tag and TEV and SUMO cleavage sites.
Transformed cells were grown and selected on LB agar with 100 μg/mL ampicillin and 17 μg/mL chloramphenicol at 37° C. overnight. A single clone was used to inoculate 200 mL of LB medium with 100 μg/mL ampicillin and 17 μg/mL chloramphenicol and incubated at 37° C. on an orbital shaker at 180 rpm. […] Once OD600 reached about 0.4, IPTG was added to a final concentration of 0.1 mM and the cells were grown overnight at 15° C. and 160 rpm. Cells were harvested by centrifugation at 8000 rpm, for 4 minutes at 4° C. and stored at −80° C. for purification. […]

One may read the IC50 as the concentration needed to halve the response being measured. Regarding `NCCC(=O)N(CCN)[C@H]1CC[C@H](NC(=O)c2cc(C3CC3)on2)CC1` [compound 35, N-((1r,4r)-4-(3-amino-N-(2-aminoethyl)pro-panamido)cyclo-hexyl)-5-cyclo-propylisoxazole-3-carboxamide], the IC50 came to 0.883 µM.

The values above are taken from patent publication US20200123142A1, “Substituted Cyclohexylamine Compounds” (EPIZYME, INC., priority 2018, published 2020).
